Measured values: article PMC4965013, “Open Source Drug Discovery with the Malaria Box Compound Collection for Neglected Diseases and Beyond” (PLoS Pathogens, 2016)
Like-named read-outs stand apart in the source and are kept apart here.

Columns and labels:
[1] = tested on: P. falciparum 3D7; experiment: [3H]-hypoxanthine growth inhibition, modified HCO3- or O2; assay type: cell-based; details: for IC50: Plasmodium falciparum
[2] = tested on: P. falciparum 3D7 trophozoites; experiment: Metabolomic fingerprint profiling LC-MS; assay type: cell-based, Plasmodium falciparum; parameters: UDP-D-glucose / ADP-D-glucose: unit not given here
[3] = tested on: P. falciparum; experiment: EC50 listed in S2 Table Metabolomics (used to set the concentration tested); assay type: cell-based; details: Plasmodium falciparum; EC50 used for Factor_XEC50 in metabolomics; read-out: EC50_nM
[4] = metabolite level change after treatment

**Q.** Which results are given for `Cc1cc(C)cc(Nc2cc(C)nc3nc(C(F)(F)F)nn23)c1` [MMV011259]?
**A.** fold change (IC50reduced/IC50normal) [1]: 2.2; IC50 ([1]; 3D7, read-out: P. falciparum 3D7 IC50 HCO3- (2g/L), standard media): 59 nM; IC50 ([1]; 3D7, HCO3- reduced media, read-out: P. falciparum 3D7 IC50 HCO3- reduced): 132 nM; Acetyllysine ([2]; S2 Table Metabolomics, metabolite Acetyllysine): -0.3746; N-acetyl-L-ornithine ([2]; S2 Table Metabolomics, metabolite N-acetyl-L-ornithine): -0.3462; N-carbamoyl-L-aspartate ([2]; S2 Table Metabolomics, metabolite N-carbamoyl-L-aspartate): 3.644; NADPH ([2]; S2 Table Metabolomics, metabolite NADPH): -0.3366; dAMP ([2]; S2 Table Metabolomics, metabolite dAMP): -0.7598; dCMP ([2]; S2 Table Metabolomics, metabolite dCMP): -0.2996; dTDP ([2]; S2 Table Metabolomics, metabolite dTDP): -1.147; dTMP ([2]; S2 Table Metabolomics, metabolite dTMP): -1.715; dTTP ([2]; S2 Table Metabolomics, metabolite dTTP): -1.159; dihydroorotate ([2]; S2 Table Metabolomics, metabolite dihydroorotate): 4.069; orotate ([2]; S2 Table Metabolomics, metabolite orotate): -1.5889; DLH ([2]; S2 Table Metabolomics, peptide DLH): -0.4322; DLS/SDL/SID ([2]; S2 Table Metabolomics, peptide DLS/SDL/SID): -0.5334; PD ([2]; S2 Table Metabolomics, peptide PD): -0.3116; PEE ([2]; S2 Table Metabolomics, peptide PEE): -0.461; PVNF ([2]; S2 Table Metabolomics, peptide PVNF): -0.5009; 3-phosphoglycerate ([2]; metabolite 3-phosphoglycerate, S2 Table Metabolomics): -0.8854; ADP-D-glucose ([2]; metabolite ADP-D-glucose, S2 Table Metabolomics): -0.2124; ATP ([2]; metabolite ATP, S2 Table Metabolomics): -0.1449; CDP ([2]; metabolite CDP, S2 Table Metabolomics, change in metabolite level after compound treatment): -0.8411; D-sedoheptulose-1/7-phosphate ([2]; metabolite D-sedoheptulose-1/7-phosphate, S2 Table Metabolomics, change in metabolite level after compound treatment): 0.2305; FAD ([2]; metabolite FAD, S2 Table Metabolomics): -0.12; GMP ([2]; metabolite GMP, S2 Table Metabolomics, change in metabolite level after compound treatment): 0.1977; NAD+ ([2]; metabolite NAD+, S2 Table Metabolomics): -0.2042; NADP+ ([2]; metabolite NADP+, S2 Table Metabolomics): -0.294; Octoluse Bisphosphate ([2]; metabolite Octoluse Bisphosphate, S2 Table Metabolomics, change in metabolite level after compound treatment): -0.4132; Pyroglutamic acid ([2]; metabolite Pyroglutamic acid, S2 Table Metabolomics): -0.07042; UDP-D-glucose ([2]; metabolite UDP-D-glucose, S2 Table Metabolomics): -0.2997; UDP-D-glucuronate ([2]; metabolite UDP-D-glucuronate, S2 Table Metabolomics): -0.2701; UDP-N-acetyl-glucosamine ([2]; metabolite UDP-N-acetyl-glucosamine, S2 Table Metabolomics): -0.5126; UDP ([2]; metabolite UDP, S2 Table Metabolomics, change in metabolite level after compound treatment): -1.399; UMP ([2]; metabolite UMP, S2 Table Metabolomics, change in metabolite level after compound treatment): -1.28; UTP ([2]; metabolite UTP, S2 Table Metabolomics, change in metabolite level after compound treatment): -1.133; a-ketoglutarate ([2]; metabolite a-ketoglutarate, S2 Table Metabolomics): -0.631; citrate/isocitrate ([2]; metabolite citrate/isocitrate, S2 Table Metabolomics, change in metabolite level after compound treatment): -1.3117; cytidine ([2]; metabolite cytidine, S2 Table Metabolomics): 0.1757; dATP ([2]; metabolite dATP, S2 Table Metabolomics): 0.0538; dGMP/AMP ([2]; metabolite dGMP/AMP, S2 Table Metabolomics, change in metabolite level after compound treatment): -0.551; fumarate ([2]; metabolite fumarate, S2 Table Metabolomics, change in metabolite level after compound treatment): -0.9126; glucose-1/6-phosphate ([2]; metabolite glucose-1/6-phosphate, S2 Table Metabolomics, change in metabolite level after compound treatment): -0.8385; glycerate ([2]; metabolite glycerate, S2 Table Metabolomics, change in metabolite level after compound treatment): -1.011; guanine ([2]; metabolite guanine, S2 Table Metabolomics, change in metabolite level after compound treatment): -0.4133; guanosine ([2]; metabolite guanosine, S2 Table Metabolomics, change in metabolite level after compound treatment): -0.4081; hypoxanthine ([2]; metabolite hypoxanthine, S2 Table Metabolomics): -0.3413; indole ([2]; metabolite indole, S2 Table Metabolomics): -0.1801; inosine ([2]; metabolite inosine, S2 Table Metabolomics, change in metabolite level after compound treatment): -0.6501; 2_3-Diphosphoglyceric acid [2, 4]: -0.2003; 4-phosphopantothenate [2, 4]: -0.5735; 6-phospho-D-gluconate [2, 4]: -1.0674; FMN [2, 4]: -0.3875; IMP [2, 4]: -0.2517; Pyrophosphate [2, 4]: -0.0001746; Sedoheptoluse bisphosphate [2, 4]: -0.416; cyclic-AMP [2, 4]: -0.9316; glutathione disulfide [2, 4]: -0.2721; lactate [2, 4]: -0.3904; myo-inositol [2, 4]: -0.254; nicotinate ([2]; metabolite nicotinate, S2 Table Metabolomics): -0.9132; ornithine ([2]; metabolite ornithine, S2 Table Metabolomics): -0.1147; phosphoenolpyruvate ([2]; metabolite phosphoenolpyruvate, S2 Table Metabolomics): -0.7531; pyruvate ([2]; metabolite pyruvate, S2 Table Metabolomics, change in metabolite level after compound treatment): -0.8729; ribose-phosphate ([2]; metabolite ribose-phosphate, S2 Table Metabolomics): -0.4441; sarcosine/alanine ([2]; metabolite sarcosine/alanine, S2 Table Metabolomics, change in metabolite level after compound treatment): -0.2762; sn-glycerol-3-phosphate ([2]; metabolite sn-glycerol-3-phosphate, S2 Table Metabolomics): -0.2294; succinate/methylmalonic acid ([2]; metabolite succinate/methylmalonic acid, S2 Table Metabolomics, change in metabolite level after compound treatment): -0.3522; uridine ([2]; metabolite uridine, S2 Table Metabolomics, change in metabolite level after compound treatment): -1.619; xanthosine ([2]; metabolite xanthosine, S2 Table Metabolomics, change in metabolite level after compound treatment): -0.6868; EC50 [3]: 85.7 nM
